Test results reported in patent publication US9446045B2, “Methods of using selective chemotherapeutic agents for targeting tumor cells” (Duquesne University of the Holy Ghost, priority 2006, dated 2016).

Legend:
[1] = test system: FR-alpha expressing RT16 cells; assay: Inhibition of FR-alpha expressing RT16 cells; type: cell-based; settings: for selectivity for FR-alpha expressing RT16 cells over RFC expressing pc43-10 cells: RT16 vs pc43-10 cells
Procedure: (§1) AAG366, AAG344, the clinically used antifolates methotrexate, pemetrexed, ratitrexed, as well as the most important GARFTase inhibitor DDATHF (Lometrexol) were evaluated.

[2] = test system: RFC expressing pc43-10 cells; assay: Inhibition of RFC expressing pc43-10 cells; type: cell-based; settings: pc43-10 cells vs FR-alpha expressing cells
Procedure: as §1

Row | Compound | potency against FR-alpha expressing RT16 cells compared with AAG366 and AAG344 [1] | selectivity for FR-alpha expressing RT16 cells over RFC expressing pc43-10 cells [1] | potency against RFC expressing pc43-10 cells compared to FR-alpha expressing RT16 or KB cells [2]
1 | Nc1nc2c(c(=O)[nH]1)C[C@@H](CCc1ccc(C(=O)N[C@@H](CCC(=O)O)C(=O)O)cc1)CN2 [DDATHF] | less potent | none showed selectivity | equal potency
2 | CN(Cc1cnc2nc(N)nc(N)c2n1)c1ccc(C(=O)N[C@@H](CCC(=O)O)C(=O)O)cc1 [methotrexate] | less potent | none showed selectivity | greater potency
3 | Nc1nc2[nH]cc(CCc3ccc(C(=O)N[C@@H](CCC(=O)O)C(=O)O)cc3)c2c(=O)[nH]1 [pemetrexed] | less potent | none showed selectivity | greater potency
4 | Cc1nc(=O)c2cc(CN(C)c3ccc(C(=O)N[C@@H](CCC(=O)O)C(=O)O)s3)ccc2[nH]1 [ratitrexed] | less potent | none showed selectivity | greater potency
